{"source": "patent US11254700B2", "about": "“GSK-3β inhibitors and use thereof in methods of treatment” (UNIVERSITY OF HAWAII, priority 2017, dated 2022)", "assay_type_in_all_cases": "in vivo, mouse", "key": {"IgG anti-Aβ42": {"tested_on": "IgG anti-Aβ42", "assay": "Anti-Aβ immunoglobulin (IgG) in serum by ELISA", "conditions": "APP/PS1 mice, 60-day intragastric, vs model group", "experimental": "The backgrounds of all mice (APP/PS1 dual transgenic mice and wild-type mice with littermates) were C57/B6. Transgenic mice were randomly divided into three groups (n=20 for each group), and wild-type mice were used as controls (n=20). The control group and one group of transgenic mice (model group) were given sterilized ultrapure water, and the other two groups of transgenic mice received low- and high-dose Isoorientin (20 and 50 mg/kg, respectively) via intragastric administration for 60 days. Throughout the study-period, animals were housed in a controlled environment (temperature, 22° C.; humidity, 50-60%, 12-hour light/12-hour dark schedules), with free access to rodent chow and water. After a Morris water maze test, mice were perfused with cold phosphate-buffered saline (PBS), brain tissues were dissected and kept frozen at −80° C. until further analysis. […] Blood was collected from mice. […] The anti-Aβ immunoglobulin (IgG) was measured using an enzyme-linked immunosorbent assay (ELISA) kit according to the manufacturer's protocol (see also, Song, et al. (2017) PLoS One 12(1):e0169509). […] The optical densities at 450 nm were analyzed using a microreader (TECAN, Switzerland) and linear regression was confirmed by ab126468, polyclonal anti-amyloid fibril antibody, as positive internal control. […]"}, "Aβ42": {"tested_on": "Aβ42", "assay": "Brain Aβ42 by ELISA", "conditions": "vs model group", "experimental": "The backgrounds of all mice (APP/PS1 dual transgenic mice and wild-type mice with littermates) were C57/B6. Transgenic mice were randomly divided into three groups (n=20 for each group), and wild-type mice were used as controls (n=20). The control group and one group of transgenic mice (model group) were given sterilized ultrapure water, and the other two groups of transgenic mice received low- and high-dose Isoorientin (20 and 50 mg/kg, respectively) via intragastric administration for 60 days. Throughout the study-period, animals were housed in a controlled environment (temperature, 22° C.; humidity, 50-60%, 12-hour light/12-hour dark schedules), with free access to rodent chow and water. […] For quantitation purposes, a highly specific and sensitive mouse Aβ42 ELISA kit was used (Invitrogen Corporation, Carlsbad, Calif.). Brain tissue protein was extracted by homogenizing about 100 mg brain tissue with an 8-fold mass quantity of cold 5 M guanidine-HCl and 50 mM Tris (pH 8.0), and incubating the homogenate at room temperature for 3.5 hours. […] Soluble and insoluble brain samples including cortex and hippocampus were analyzed for Aβ levels using the mouse Aβ42 ELISA kit, according to the manufacturer's instructions. […] The obtained values were corrected for the wet weight of each brain sample and expressed as μg/mg brain."}, "[1]": {"tested_on": "TNFα, IL-2, IFN-γ, IL-4, IL-10", "assay": "Serum cytokines", "conditions": "APP/PS1 mice, vs model group", "experimental": "The backgrounds of all mice (APP/PS1 dual transgenic mice and wild-type mice with littermates) were C57/B6. Transgenic mice were randomly divided into three groups (n=20 for each group), and wild-type mice were used as controls (n=20). The control group and one group of transgenic mice (model group) were given sterilized ultrapure water, and the other two groups of transgenic mice received low- and high-dose Isoorientin (20 and 50 mg/kg, respectively) via intragastric administration for 60 days. Throughout the study-period, animals were housed in a controlled environment (temperature, 22° C.; humidity, 50-60%, 12-hour light/12-hour dark schedules), with free access to rodent chow and water. After a Morris water maze test, mice were perfused with cold phosphate-buffered saline (PBS), brain tissues were dissected and kept frozen at −80° C. until further analysis. […] T-cell-specific cytokines (Interferon-γ (IFN-γ), interleukin (IL)-2, IL-4, and IL-10) in mouse serum were also measured. Mouse Th17 Magnetic Bead Panel 96-Well Plate Assay was purchased from Millipore. The assay was performed in a 96-well plate and all reagents were prepared according to the Millipore instructions. Briefly, 200 μL of Wash Buffer was added into each well to pre-wet plate, Wash Buffer was decanted thoroughly and the plate was mixed on a plate shaker for 10 minutes at room temperature (25-27° C.). In accordance with the instructions of the kit, the appropriate reagents were added to the wells and the plate was sealed and incubated overnight at 4° C. in the dark. Plates were put on the magnetic support and each well was washed twice with 200 μl of wash buffer via a plate shaker at 450 rpm for 2 minutes at room temperature. After adding 5 μl of detection antibody to each well, the plate was sealed and incubated with agitation on a plate shaker for 1 hour at room temperature. […] Binding was assessed using a LUMINEX-200 instrument and xPONENT software. Serum samples were analyzed for IL4 and TNFα using a Mouse IL4 ELISA Kit and a Mouse TNFα ELISA Kit, respectively, according to the manufacturer's instructions. […]"}}, "note": "“Also recorded” adds a separate entry of the source."}
{"smiles": "O=c1cc(-c2ccc(O)c(O)c2)oc2cc(O)c([C@@H]3O[C@H](CO)[C@@H](O)[C@H](O)[C@H]3O)c(O)c12", "note": "[Compound 1, isoorientin]", "values": [{"measurement": "IgG anti-Aβ42 in serum", "setting": "IgG anti-Aβ42", "value": "decreased; also recorded: reduced"}, {"measurement": "Aβ42 in brain (cortex+hippocampus)", "setting": "Aβ42; high-dose group 50 mg/kg, oral, 60 days", "value": "significantly lower; also recorded: significant decrease"}, {"measurement": "Aβ42 in brain (cortex+hippocampus)", "setting": "Aβ42; low-dose group", "value": "no statistically significant difference"}, {"measurement": "IFNγ in serum", "setting": "[1]", "value": "no statistical difference in the decrease"}, {"measurement": "anti-inflammatory factors (IL-4, IL-10) in serum", "setting": "[1]", "value": "significantly elevated"}, {"measurement": "pro-inflammatory factors (TNFα, IFNγ, IL-2) in serum", "setting": "[1]", "value": "slightly lower than those in the model group"}]}
